# Reference: US20260022143A1, “Cyclic Peptide Inhibitors of IL-23” (JANSSEN PHARMACEUTICA NV, priority 2022, published 2026)
# Where a name gives a salt, the structure may show the parent alone. Read-outs that look alike come from different tables or passages of the source. Starred links: 1 amine or outer side, 2 acyl side, 3 side chain; linkers in the order of their positions; H or OH if unused. Positions of bridges follow the written chain, without caps; N, C: chain ends. Non-standard residues stand in square brackets, D forms with d. Residues, ends and D or L forms follow the SMILES beside them. Groups on a side chain read outwards from the residue. *: point of attachment. Trp(7-(3-AcNH-Ph)) = CC(=O)Nc1cccc(-c2cccc3c(C[C@H](N)C(=O)O)c[nH]c23)c1; Me3N+(CH2)2O(CH2)2O(CH2)2CO = C[N+](C)(C)CCOCCOCCC(=O)*; CH2CH2OCH2CH2OCH2CH2NMe3+ = C[N+](C)(C)CCOCCOCC*; Trp(7-Me) = Cc1cccc2c(C[C@H](N)C(=O)O)c[nH]c12; 3Pal(5-Me) = Cc1cncc(C[C@H](N)C(=O)O)c1; γGlu = O=C(O)[C@H](CCC(=O)[*:2])N[*:1]; 2Nal = N[C@@H](Cc1ccc2ccccc2c1)C(=O)O; AEF = NCCOc1ccc(C[C@H](N)C(=O)O)cc1; X79 = CN1CCC(N[*:1])(C(=O)[*:2])CC1; dNMeY = CN[C@H](Cc1ccc(O)cc1)C(=O)O; X32 = C(CCC*)CC[N+]12CCN(CC1)CC2; 3Pal = N[C@@H](Cc1cccnc1)C(=O)O; Myristoyl = CCCCCCCCCCCCCC(=O)*; d3Pal = N[C@H](Cc1cccnc1)C(=O)O; Lys(Me) = CNCCCC[C@H](N)C(=O)O; NMeK = CN[C@@H](CCCCN)C(=O)O; Pen = CC(C)(S)[C@H](N)C(=O)O; αMeK = C[C@](N)(CCCCN)C(=O)O; X88 = COCC[N+](C)(C)CCCC*; Thp = NC1(C(=O)O)CCOCC1; X3 = C[N+](C)(C)CCCCC*; AEEA = NCCOCCOCC(=O)O; Me2NCH2CH2 = CN(C)CC*; Tfa = O=C(C(F)(F)F)*; Sar = CNCC(=O)O
# Assay: Exposed Polar Surface Area (EPSA)
# Format: physicochemical
# Conditions: SFC on Chirex 3014 column, sample 1 mM DMSO stock
# Summary of the method: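 Compounds, as 1 mM DMSO stock, were injected in duplicate onto an SFC Chirex 3014 column at 35 °C and eluted with a CO2/methanol (20 mM ammonium formate) gradient. EPSA values in Å^2 were derived from retention times using a linear fit to eight calibration standards, reinjected every 20 compounds.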
Compound,EPSA (read-out: EPSA),EPSA
"CC(=O)N[C@@H]1C(=O)N[C@@H](CC(=O)N(C)C)C(=O)N[C@@H]([C@@H](C)O)C(=O)N[C@@H](Cc2c[nH]c3c(C)cccc23)C(=O)N[C@@H](CCC(=O)N(C)C)C(=O)N[C@H](C(=O)N[C@@H](Cc2ccc(OCCN(C)C)cc2)C(=O)N[C@@H](Cc2ccc3ccccc3c2)C(=O)NC2(C(=O)N[C@@H](CCC(=O)O)C(=O)N[C@@H](CC(N)=O)C(=O)N[C@@H](Cc3cccnc3)C(=O)N(C)CC(=O)N(C)C)CCOCC2)C(C)(C)SSC1(C)C [compound 120, MeCO-Pen(3)-N(N(Me)2)-T-7MeW-Q(N(Me)2)-Pen(3)-AEF(N(Me)2)-2Nal-THP-E-N-3Pya-Sar-CON(Me)2] (Ac-[Pen]D(NMe2)T[Trp(7-Me)]E(NMe2)[Pen]Y(Me2NCH2CH2)[2Nal][Thp]EN[3Pal][Sar]-NMe2; disulfide 1-6)",153 A^2,
CC(=O)NCCCC[C@@H]1NC(=O)[C@H](Cc2c[nH]c3c(C)cccc23)NC(=O)[C@H]([C@@H](C)O)NC(=O)[C@H](CC(N)=O)NC(=O)[C@@H](NC(=O)C(F)(F)F)C(C)(C)SSC(C)(C)[C@@H](C(=O)N[C@@H](Cc2ccc(OCCN)cc2)C(=O)N[C@@H](Cc2ccc3ccccc3c2)C(=O)NC2(C(=O)N[C@@H](CCCCNC(C)=O)C(=O)N[C@@H](CC(N)=O)C(=O)N[C@@H](Cc3cccnc3)C(=O)N(C)CC(N)=O)CCN(C)CC2)NC1=O [compound 55] (Tfa-[Pen]NT[Trp(7-Me)]K(Ac)[Pen][AEF][2Nal][X79]K(Ac)N[3Pal][Sar]-NH2; disulfide 1-6 (inferred)),159 A^2,
"CC(=O)NCCCC[C@@H]1NC(=O)[C@H](Cc2c[nH]c3c(C)cccc23)NC(=O)[C@H]([C@@H](C)O)NC(=O)[C@H](CC(N)=O)NC(=O)[C@@H](NC(C)=O)C(C)(C)SSC(C)(C)[C@@H](C(=O)N[C@@H](Cc2ccc(OCCN)cc2)C(=O)N[C@@H](Cc2ccc3ccccc3c2)C(=O)N[C@@](C)(CCCCN)C(=O)N[C@@H](CCCCNC(C)=O)C(=O)N[C@@H](CC(N)=O)C(=O)N[C@H](Cc2cccnc2)C(=O)N(C)[C@H](Cc2ccc(O)cc2)C(N)=O)NC1=O [compound 32, MeCO-Pen(3)-N-T-7MeW-K(Ac)-Pen(3)-AEF-2Nal-aMeK-K(ac)-N-3pya-NMeDTyr-CONH2] (Ac-[Pen]NT[Trp(7-Me)]K(Ac)[Pen][AEF][2Nal][αMeK]K(Ac)N[d3Pal][dNMeY]-NH2; disulfide 1-6)",166 A^2,
"CCCCCCCCCCCCCC(=O)N[C@@H](CCC(=O)NCCOCCOCC(=O)NCCOCCOCC(=O)NCCCC[C@H](NC(=O)C1(NC(=O)[C@H](Cc2ccc3ccccc3c2)NC(=O)[C@H](Cc2ccc(OCCCCC[N+](C)(C)C)cc2)NC(=O)[C@H]2NC(=O)[C@H](CCCCNC(C)=O)NC(=O)[C@H](Cc3c[nH]c4c(C)cccc34)NC(=O)[C@H]([C@@H](C)O)NC(=O)[C@H](CC(=O)N(C)C)NC(=O)[C@@H](NC(=O)CCOCCOCC[N+](C)(C)C)C(C)(C)SSC2(C)C)CCOCC1)C(=O)N[C@@H](CC(N)=O)C(=O)N[C@@H](Cc1cccnc1)C(=O)N(C)[C@@H](CCCCNC(=O)COCCOCCNC(=O)COCCOCCNC(=O)CC[C@H](NC(=O)CCCCCCCCCCCCC)C(=O)O)C(N)=O)C(=O)O [compound 351, cPEG3aCO-Pen(3)-N(N(Me)2)-T-7MeW-K(Ac)-Pen(3)-TMAPF-2Nal-THP-K(PEG2PEG2gEC14)-N-3Pya-NMeK(PEG2PEG2gEC14)-CONH2] ({Me3N+(CH2)2O(CH2)2O(CH2)2CO}-[Pen]D(NMe2)T[Trp(7-Me)]K(Ac)[Pen]Y(X3)[2Nal][Thp]K([AEEA-AEEA-γGlu-Myristoyl])N[3Pal][NMeK]([AEEA-AEEA-γGlu-Myristoyl])-NH2; disulfide 1-6)",184 A^2,
"COCC[N+](C)(C)CCCCOc1ccc(C[C@H](NC(=O)[C@H]2NC(=O)[C@H](CCCCN(C)C(C)=O)NC(=O)[C@H](Cc3c[nH]c4c(C)cccc34)NC(=O)[C@H]([C@@H](C)O)NC(=O)[C@H](CC(=O)N(C)C)NC(=O)[C@@H](NC(=O)CCOCCOCC[N+](C)(C)C)C(C)(C)SSC2(C)C)C(=O)N[C@@H](Cc2ccc3ccccc3c2)C(=O)NC2(C(=O)N[C@@H](CCCCN(C)C(C)=O)C(=O)N[C@@H](CC(N)=O)C(=O)N[C@@H](Cc3cccnc3)C(=O)N(C)CC(=O)N(C)C)CCOCC2)cc1 [compound 227, cPEG3aCO-Pen(3)-N(N(Me)2)-T-7MeW-K(NMeAc)-Pen(3)-mPEG2TMA4F-2Nal-THP-K(NMeAc)-N-3Pya-Sar-CON(Me)2] ({Me3N+(CH2)2O(CH2)2O(CH2)2CO}-[Pen]D(NMe2)T[Trp(7-Me)][Lys(Me)](Ac)[Pen]Y(X88)[2Nal][Thp][Lys(Me)](Ac)N[3Pal][Sar]-NMe2; disulfide 1-6)",139 A^2,
"CC(=O)NCCCC[C@@H]1NC(=O)[C@H](Cc2c[nH]c3c(C)cccc23)NC(=O)[C@H]([C@@H](C)O)NC(=O)[C@H](CC(N)=O)NC(=O)[C@@H](NC(=O)[C@@H](CCCNC(=N)N)NC(=O)CCOCCOCC[N+](C)(C)C)C(C)(C)SSC(C)(C)[C@@H](C(=O)N[C@@H](Cc2ccc(OCCCCC[N+](C)(C)C)cc2)C(=O)N[C@@H](Cc2ccc3ccccc3c2)C(=O)NC2(C(=O)N[C@@H](CCC(=O)O)C(=O)N[C@@H](CC(N)=O)C(=O)N[C@@H](Cc3cncc(C)c3)C(=O)N(C)CC(N)=O)CCOCC2)NC1=O [compound 542, cPEG3aCO-r-Pen(3)-N-T-7MeW-K(Ac)-Pen(3)-TMAPF-2Nal-THP-E-N-5MePyridinAla-Sar-CONH2] ({Me3N+(CH2)2O(CH2)2O(CH2)2CO}-[dR][Pen]NT[Trp(7-Me)]K(Ac)[Pen]Y(X3)[2Nal][Thp]EN[3Pal(5-Me)][Sar]-NH2; disulfide 2-7)",180 A^2,
"CC(=O)N(C)CCCC[C@@H]1NC(=O)[C@H](Cc2c[nH]c3c(C)cccc23)NC(=O)[C@H]([C@@H](C)O)NC(=O)[C@H](CC(=O)N(C)C)NC(=O)[C@@H](NC(=O)CCOCCOCC[N+](C)(C)C)C(C)(C)SSC(C)(C)[C@@H](C(=O)N[C@@H](Cc2ccc(OCCCCCC[N+]34CCN(CC3)CC4)cc2)C(=O)N[C@@H](Cc2ccc3ccccc3c2)C(=O)NC2(C(=O)N[C@@H](CCCCN(C)C(C)=O)C(=O)N[C@@H](CC(N)=O)C(=O)N[C@@H](Cc3cccnc3)C(=O)N(C)CC(=O)N(C)C)CCOCC2)NC1=O [compound 292, cPEG3aCO-Pen(3)-N(N(Me)2)-T-7MeW-K(NMeAc)-Pen(3)-Diazabiclyclooctane6F-2Nal-THP-K(NMeAc)-N-3Pya-Sar-CON(Me)2] ({Me3N+(CH2)2O(CH2)2O(CH2)2CO}-[Pen]D(NMe2)T[Trp(7-Me)][Lys(Me)](Ac)[Pen]Y(X32)[2Nal][Thp][Lys(Me)](Ac)N[3Pal][Sar]-NMe2; disulfide 1-6)",152 A^2,
"CC(=O)NCCCC[C@@H]1NC(=O)[C@H](Cc2c[nH]c3c(-c4cccc(NC(C)=O)c4)cccc23)NC(=O)[C@H]([C@@H](C)O)NC(=O)[C@H](CC(N)=O)NC(=O)[C@@H](NC(=O)[C@@H](CCCNC(=N)N)NC(C)=O)C(C)(C)SSC(C)(C)[C@@H](C(=O)N[C@@H](Cc2ccc(OCCCCC[N+](C)(C)C)cc2)C(=O)N[C@@H](Cc2ccc3ccccc3c2)C(=O)NC2(C(=O)N[C@@H](CCC(=O)O)C(=O)N[C@@H](CC(N)=O)C(=O)N[C@@H](Cc3cncc(C)c3)C(=O)N(C)CC(N)=O)CCOCC2)NC1=O [compound 540, MeCO-r-Pen(3)-N-T-7(3NAcPh)W-K(Ac)-Pen(3)-TMAPF-2Nal-THP-E-N-5MePyridinAla-Sar-CONH2] (Ac-[dR][Pen]NT[Trp(7-(3-AcNH-Ph))]K(Ac)[Pen]Y(X3)[2Nal][Thp]EN[3Pal(5-Me)][Sar]-NH2; disulfide 2-7)",183 A^2,
"CC(=O)NCCCC[C@H](NC(=O)[C@](C)(CCCCN)NC(=O)[C@H](Cc1ccc2ccccc2c1)NC(=O)[C@H](Cc1ccc(OCCN)cc1)NC(=O)[C@H]1NC(=O)[C@H](Cc2ccc(O)cc2)NC(=O)[C@H](Cc2c[nH]c3c(C)cccc23)NC(=O)[C@H]([C@@H](C)O)NC(=O)[C@H](CC(N)=O)NC(=O)[C@@H](NC(C)=O)C(C)(C)SSC1(C)C)C(=O)N[C@@H](CC(N)=O)C(=O)N[C@H](CCCCN)C(=O)N(C)[C@H](Cc1ccc(O)cc1)C(N)=O [compound 21, MeCO-Pen(3)-N-T-7MeW-Y-Pen(3)-AEF-2Nal-aMeK-K(Ac)-N-k-NMeDTyr-CONH2] (Ac-[Pen]NT[Trp(7-Me)]Y[Pen][AEF][2Nal][αMeK]K(Ac)N[dK][dNMeY]-NH2; disulfide 1-6 (inferred))",152 A^2,170.27 Å^2
CC(=O)NCCCC[C@@H]1NC(=O)[C@H](Cc2c[nH]c3c(C)cccc23)NC(=O)[C@H]([C@@H](C)O)NC(=O)[C@H](CC(N)=O)NC(=O)[C@@H](NC(C)=O)C(C)(C)SSC(C)(C)[C@@H](C(=O)N[C@@H](Cc2ccc(OCCOCCOCC[N+](C)(C)C)cc2)C(=O)N[C@@H](Cc2ccc3ccccc3c2)C(=O)NC2(C(=O)N[C@@H](CCCCNC(C)=O)C(=O)N[C@@H](CC(N)=O)C(=O)N[C@@H](Cc3cccnc3)C(=O)N(C)CC(N)=O)CCOCC2)NC1=O [compound 194] (Ac-[Pen]NT[Trp(7-Me)]K(Ac)[Pen]Y(CH2CH2OCH2CH2OCH2CH2NMe3+)[2Nal][Thp]K(Ac)N[3Pal][Sar]-NH2; disulfide 1-6),146 A^2,
"CC(=O)NCCCC[C@@H]1NC(=O)[C@H](Cc2c[nH]c3c(-c4cccc(NC(C)=O)c4)cccc23)NC(=O)[C@H]([C@@H](C)O)NC(=O)[C@H](CC(N)=O)NC(=O)[C@@H](NC(=O)CCOCCOCC[N+](C)(C)C)C(C)(C)SSC(C)(C)[C@@H](C(=O)N[C@@H](Cc2ccc(OCCN)cc2)C(=O)N[C@@H](Cc2ccc3ccccc3c2)C(=O)NC2(C(=O)N[C@@H](CCCCNC(C)=O)C(=O)N[C@@H](CC(N)=O)C(=O)N[C@@H](Cc3cccnc3)C(=O)N(C)CC(N)=O)CCOCC2)NC1=O [compound 445, cPEG3aCO-Pen(3)-N-T-7(3NAcPh)W-K(Ac)-Pen(3)-AEF-2Nal-THP-K(Ac)-N-3Pya-Sar-CONH2] ({Me3N+(CH2)2O(CH2)2O(CH2)2CO}-[Pen]NT[Trp(7-(3-AcNH-Ph))]K(Ac)[Pen][AEF][2Nal][Thp]K(Ac)N[3Pal][Sar]-NH2; disulfide 1-6)",176 A^2,
